Values quoted from earlier work, collected in article PMC8955938, “c-Myc Protein Level Affected by Unsymmetrical Bisacridines Influences Apoptosis and Senescence Induced in HCT116 Colorectal and H460 Lung Cancer Cells” (International Journal of Molecular Sciences, 2022).

Set-up: method as in PMID 26485768, PMID 17009029, PMID 21805041, PMID 30894570
Settings: established in similar conditions; irinotecan colon cancer treatment, cisplatin lung cancer treatment; cited from earlier work

Structure (SMILES) | IC50
N.N.[Cl][Pt][Cl] [cisplatin] | ~5 µM
CCc1c2c(nc3ccc(OC(=O)N4CCC(N5CCCCC5)CC4)cc13)-c1cc3c(c(=O)n1C2)COC(=O)[C@]3(O)CC [irinotecan] | ~5 µM
